Target: T1, VEGFR-2 (Homo sapiens, UniProt P35968)
T1 construct: gene KDR
Experiment: in vitro VEGFR-2 inhibition, Human VEGFR-2 ELISA kit
Format: biochemical

T1 sequence (P35968 20-1356): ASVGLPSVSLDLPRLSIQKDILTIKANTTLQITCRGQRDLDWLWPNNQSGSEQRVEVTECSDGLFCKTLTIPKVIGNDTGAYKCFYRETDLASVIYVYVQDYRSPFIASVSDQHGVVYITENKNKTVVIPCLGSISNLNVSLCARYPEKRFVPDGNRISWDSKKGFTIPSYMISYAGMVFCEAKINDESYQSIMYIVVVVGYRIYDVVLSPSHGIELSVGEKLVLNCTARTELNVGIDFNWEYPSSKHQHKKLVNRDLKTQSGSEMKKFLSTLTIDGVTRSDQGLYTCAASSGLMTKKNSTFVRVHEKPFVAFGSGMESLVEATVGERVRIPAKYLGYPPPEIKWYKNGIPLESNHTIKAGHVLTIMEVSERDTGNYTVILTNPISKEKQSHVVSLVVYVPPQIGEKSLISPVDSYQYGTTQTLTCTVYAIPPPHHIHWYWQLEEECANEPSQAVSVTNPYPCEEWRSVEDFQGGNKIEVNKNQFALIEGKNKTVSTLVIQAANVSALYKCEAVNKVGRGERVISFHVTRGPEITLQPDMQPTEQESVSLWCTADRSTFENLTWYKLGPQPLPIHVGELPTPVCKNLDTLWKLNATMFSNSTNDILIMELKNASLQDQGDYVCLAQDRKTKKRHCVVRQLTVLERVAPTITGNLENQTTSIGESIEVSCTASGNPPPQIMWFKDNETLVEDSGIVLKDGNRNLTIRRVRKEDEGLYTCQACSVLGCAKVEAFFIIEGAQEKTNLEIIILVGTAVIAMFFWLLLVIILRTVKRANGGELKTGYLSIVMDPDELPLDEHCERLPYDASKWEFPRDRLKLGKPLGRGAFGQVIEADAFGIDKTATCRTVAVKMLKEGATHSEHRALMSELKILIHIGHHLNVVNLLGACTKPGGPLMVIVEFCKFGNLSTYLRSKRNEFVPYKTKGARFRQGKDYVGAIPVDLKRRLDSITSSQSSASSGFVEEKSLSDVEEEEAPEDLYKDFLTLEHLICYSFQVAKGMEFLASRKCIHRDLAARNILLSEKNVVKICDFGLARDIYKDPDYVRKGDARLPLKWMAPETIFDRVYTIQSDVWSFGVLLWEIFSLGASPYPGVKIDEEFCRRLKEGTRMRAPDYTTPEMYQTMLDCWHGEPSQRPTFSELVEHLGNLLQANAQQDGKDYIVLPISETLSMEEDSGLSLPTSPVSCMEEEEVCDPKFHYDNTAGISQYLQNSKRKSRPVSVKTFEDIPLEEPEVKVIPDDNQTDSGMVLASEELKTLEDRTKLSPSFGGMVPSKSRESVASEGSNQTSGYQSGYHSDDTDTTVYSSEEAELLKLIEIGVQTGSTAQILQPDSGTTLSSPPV

IC50: 65.8 nM
Compound: C/C(=N\NC(=O)c1ccc(NC(=O)C(F)(F)F)cc1)c1cccc(NC(=O)c2cccnc2)c1 [compound 10, (E)-N-(3-(1-(2-(4-(2,2,2-Trifluoroacetamido)benzoyl)hydrazono)ethyl)phenyl)nicotinamide]
